Measurements reported in US10570184B2, “GLP-1/glucagon receptor co-agonists for medical use” (Novo Nordisk A/S, priority 2014, dated 2020).
Starred links: 1 amine or outer side, 2 acyl side, 3 side chain; linkers in the order of their positions; H or OH if unused. Non-standard residues stand in square brackets, D forms with d. Residues, ends and D or L forms follow the SMILES beside them. Groups on a side chain read outwards from the residue. *: point of attachment. C18 diacid = O=C(O)CCCCCCCCCCCCCCCCC(=O)*; γGlu = O=C(O)[C@H](CCC(=O)[*:2])N[*:1]; Ac4c = NC1(C(=O)O)CCC1; AEEA = NCCOCCOCC(=O)O; Aib = CC(C)(N)C(=O)O

The compounds below were run against T1, human GLP-1 receptor (Homo sapiens, UniProt P43220) (assay: Assay (II)(a) GLP-1 receptor binding, 125I-GLP-1 displacement SPA on BHK membranes). Details: without presence of serum albumin; read-out: GLP-1R IC50 (nM) [Assay (II)(a)].
T1 construct: expressed in transfected cells; host or cells: membranes of BHK cells (parent BHKTS13), clone FCW467-12A
T1 sequence (P43220 24-463): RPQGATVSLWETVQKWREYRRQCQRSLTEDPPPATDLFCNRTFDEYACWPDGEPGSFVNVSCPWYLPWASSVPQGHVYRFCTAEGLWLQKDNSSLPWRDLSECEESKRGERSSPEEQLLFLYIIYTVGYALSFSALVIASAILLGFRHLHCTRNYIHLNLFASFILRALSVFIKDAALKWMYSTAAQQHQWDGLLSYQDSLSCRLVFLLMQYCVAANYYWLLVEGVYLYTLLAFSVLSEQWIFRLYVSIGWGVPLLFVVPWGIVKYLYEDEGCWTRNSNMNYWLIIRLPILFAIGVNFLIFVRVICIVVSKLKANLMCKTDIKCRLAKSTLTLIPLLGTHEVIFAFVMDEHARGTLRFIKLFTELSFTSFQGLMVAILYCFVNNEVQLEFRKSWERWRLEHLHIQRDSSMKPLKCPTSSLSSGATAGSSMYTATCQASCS
Method in brief: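 Membranes from BHK cells (clone FCW467-12A) stably expressing human GLP-1R were incubated with serially diluted compounds (8×10EE-13 to 8×10EE-7 M before addition) and [125I]-GLP-1-(7-36)NH2 with WGA SPA beads, 2 h at 30° C, pH 7.4. IC50 taken from displacement by non-linear regression. Run at ≤0.001% or 2.0% final serum albumin.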

| SMILES | IC50 [nM] |
| --- | --- |
| CC[C@H](C)[C@H](NC(=O)[C@H](CC(C)C)NC(=O)[C@H](Cc1c[nH]c2ccccc12)NC(=O)[C@H](CCC(N)=O)NC(=O)[C@@H](NC(=O)[C@H](Cc1ccccc1)NC(=O)[C@H](CC(=O)O)NC(=O)[C@H](CCC(N)=O)NC(=O)[C@H](C)NC(=O)[C@H](CCCNC(=N)N)NC(=O)[C@H](CCCNC(=N)N)NC(=O)[C@H](C)NC(=O)[C@H](CC(=O)O)NC(=O)[C@H](CC(C)C)NC(=O)[C@H](Cc1ccc(O)cc1)NC(=O)[C@H](CCCCN)NC(=O)[C@H](CO)NC(=O)[C@H](CC(C)C)NC(=O)[C@H](CC(=O)O)NC(=O)[C@H](CO)NC(=O)[C@@H](NC(=O)[C@H](Cc1ccccc1)NC(=O)[C@@H](NC(=O)CNC(=O)[C@H](CCC(N)=O)NC(=O)C(C)(C)NC(=O)[C@@H](N)Cc1c[nH]cn1)[C@@H](C)O)[C@@H](C)O)C(C)C)C(=O)N[C@@H](CCCCNC(=O)COCCOCCNC(=O)COCCOCCNC(=O)CC[C@H](NC(=O)CC[C@H](NC(=O)CC[C@H](NC(=O)CCCCCCCCCCCCCCCCC(=O)O)C(=O)O)C(=O)O)C(=O)O)C(=O)N[C@H](C(N)=O)[C@@H](C)O [Chem. 7, N^ε28-[2-[2-[2-[[2-[2-[2-[[(4S)-4-carboxy-4-[[(4S)-4-carboxy-4-[[(4S)-4-carboxy-4-(17-carboxyheptadecanoylamino)butanoyl]amino]butanoyl]amino]butanoyl]amino]ethoxy]ethoxy]acetyl]amino]ethoxy]ethoxy]acetyl]-[Aib2,Leu10,Ala16,Ile27,Lys28]-Glucagon amide] (H-H[Aib]QGTFTSDLSKYLDARRAQDFVQWLIK([AEEA-AEEA-γGlu-γGlu-γGlu-C18 diacid])T-NH2; N-terminus assumed) | 0.3 |
| CC[C@H](C)[C@H](NC(=O)[C@H](CC(C)C)NC(=O)[C@H](Cc1c[nH]c2ccccc12)NC(=O)[C@H](CCC(N)=O)NC(=O)[C@@H](NC(=O)[C@H](Cc1ccccc1)NC(=O)[C@H](CCC(=O)O)NC(=O)[C@H](CCCNC(=N)N)NC(=O)[C@H](C)NC(=O)[C@H](CCCNC(=N)N)NC(=O)[C@H](CCCNC(=N)N)NC(=O)[C@H](CO)NC(=O)[C@H](CCC(=O)O)NC(=O)[C@H](CC(C)C)NC(=O)[C@H](Cc1ccc(O)cc1)NC(=O)[C@H](CCCCN)NC(=O)[C@H](CO)NC(=O)[C@H](CC(C)C)NC(=O)[C@H](CC(=O)O)NC(=O)[C@H](CO)NC(=O)[C@@H](NC(=O)[C@H](Cc1ccccc1)NC(=O)[C@@H](NC(=O)CNC(=O)[C@H](CCC(N)=O)NC(=O)C1(NC(=O)[C@@H](N)Cc2c[nH]cn2)CCC1)[C@@H](C)O)[C@@H](C)O)C(C)C)C(=O)N[C@@H](CCCCNC(=O)COCCOCCNC(=O)COCCOCCNC(=O)CC[C@H](NC(=O)CC[C@H](NC(=O)CCCCCCCCCCCCCCCCC(=O)O)C(=O)O)C(=O)O)C(=O)N[C@H](C(N)=O)[C@@H](C)O [Chem. 18, N^ε28-[2-[2-[2-[[2-[2-[2-[[(4S)-4-carboxy-4-[[(4S)-4-carboxy-4-(17-carboxyheptadecanoylamino)butanoyl]amino]butanoyl]amino]ethoxy]ethoxy]acetyl]amino]ethoxy]ethoxy]acetyl]-[Acb2,Leu10,Glu15,Arg20,Glu21,Ile27,Lys28]-Glucagon amide] (H-H[Ac4c]QGTFTSDLSKYLESRRAREFVQWLIK([AEEA-AEEA-γGlu-γGlu-C18 diacid])T-NH2) | 0.1 |
| CC[C@H](C)[C@H](NC(=O)[C@H](CC(C)C)NC(=O)[C@H](Cc1c[nH]c2ccccc12)NC(=O)[C@H](CCC(N)=O)NC(=O)[C@@H](NC(=O)[C@H](Cc1ccccc1)NC(=O)[C@H](CCC(=O)O)NC(=O)[C@H](CCCNC(=N)N)NC(=O)[C@H](C)NC(=O)[C@H](CCCNC(=N)N)NC(=O)[C@H](CCCNC(=N)N)NC(=O)[C@H](C)NC(=O)[C@H](CC(=O)O)NC(=O)[C@H](CC(C)C)NC(=O)[C@H](Cc1ccc(O)cc1)NC(=O)[C@H](CCCCN)NC(=O)[C@H](CO)NC(=O)[C@H](CC(C)C)NC(=O)[C@H](CC(=O)O)NC(=O)[C@H](CO)NC(=O)[C@@H](NC(=O)[C@H](Cc1ccccc1)NC(=O)[C@@H](NC(=O)CNC(=O)[C@H](CCC(N)=O)NC(=O)C(C)(C)NC(=O)[C@@H](N)Cc1c[nH]cn1)[C@@H](C)O)[C@@H](C)O)C(C)C)C(=O)N[C@@H](CC(N)=O)C(=O)N[C@@H](CCCCNC(=O)CC[C@H](NC(=O)CC[C@H](NC(=O)COCCOCCNC(=O)COCCOCCNC(=O)CC[C@H](NC(=O)CCCCCCCCCCCCCCCCC(=O)O)C(=O)O)C(=O)O)C(=O)O)C(N)=O [Chem. 21, N^ε29-[(4S)-4-carboxy-4-[[(4S)-4-carboxy-4-[[2-[2-[2-[[2-[2-[2-[[(4S)-4-carboxy-4-(17-carboxyheptadecanoylamino)butanoyl]amino]ethoxy]ethoxy]acetyl]amino]ethoxy]ethoxy]acetyl]amino]butanoyl]amino]butanoyl]-[Aib2,Leu10,Ala16,Arg20,Glu21,Ile27,Lys29]-Glucagon amide] (H-H[Aib]QGTFTSDLSKYLDARRAREFVQWLINK([γGlu-γGlu-AEEA-AEEA-γGlu-C18 diacid])-NH2; N-terminus assumed) | 0.1 |

The next lines start with the values.

| IC50 [nM] | SMILES |
| --- | --- |
| 0.1 | CC[C@H](C)[C@H](NC(=O)[C@H](CC(C)C)NC(=O)[C@H](Cc1c[nH]c2ccccc12)NC(=O)[C@H](CCCCNC(=O)COCCOCCNC(=O)COCCOCCNC(=O)CC[C@H](NC(=O)CC[C@H](NC(=O)CC[C@H](NC(=O)CCCCCCCCCCCCCCCCC(=O)O)C(=O)O)C(=O)O)C(=O)O)NC(=O)[C@@H](NC(=O)[C@H](Cc1ccccc1)NC(=O)[C@H](CCC(=O)O)NC(=O)[C@H](CCCNC(=N)N)NC(=O)[C@H](C)NC(=O)[C@H](CCCNC(=N)N)NC(=O)[C@H](CCCNC(=N)N)NC(=O)[C@H](C)NC(=O)[C@H](CC(=O)O)NC(=O)[C@H](CC(C)C)NC(=O)[C@H](Cc1ccc(O)cc1)NC(=O)[C@H](CCCCN)NC(=O)[C@H](CO)NC(=O)[C@H](Cc1ccc(O)cc1)NC(=O)[C@H](CC(=O)O)NC(=O)[C@H](CO)NC(=O)[C@@H](NC(=O)[C@H](Cc1ccccc1)NC(=O)[C@@H](NC(=O)CNC(=O)[C@H](CCC(N)=O)NC(=O)C(C)(C)NC(=O)[C@@H](N)Cc1c[nH]cn1)[C@@H](C)O)[C@@H](C)O)C(C)C)C(=O)N[C@@H](CO)C(=O)N[C@H](C(N)=O)[C@@H](C)O [Chem. 4, N^ε24-[2-[2-[2-[[2-[2-[2-[[(4S)-4-carboxy-4-[[(4S)-4-carboxy-4-[[(4S)-4-carboxy-4-(17-carboxyheptadecanoylamino)butanoyl]amino]butanoyl]amino]butanoyl]amino]ethoxy]ethoxy]acetyl]amino]ethoxy]ethoxy]acetyl]-[Aib2,Ala16,Arg20,Glu21,Lys24,Ile27,Ser28]-Glucagon amide] (H-H[Aib]QGTFTSDYSKYLDARRAREFVK([AEEA-AEEA-γGlu-γGlu-γGlu-C18 diacid])WLIST-NH2; N-terminus assumed) |
| 0.1 | CC[C@H](C)[C@H](NC(=O)[C@H](CC(C)C)NC(=O)[C@H](Cc1c[nH]c2ccccc12)NC(=O)[C@H](CCC(N)=O)NC(=O)[C@@H](NC(=O)[C@H](Cc1ccccc1)NC(=O)[C@H](CCC(=O)O)NC(=O)[C@H](CCCNC(=N)N)NC(=O)[C@H](C)NC(=O)[C@H](CCCNC(=N)N)NC(=O)[C@H](CCCNC(=N)N)NC(=O)[C@H](CO)NC(=O)[C@H](CCC(=O)O)NC(=O)[C@H](CC(C)C)NC(=O)[C@H](Cc1ccc(O)cc1)NC(=O)[C@H](CCCNC(=N)N)NC(=O)[C@H](CO)NC(=O)[C@H](CC(C)C)NC(=O)[C@H](CC(=O)O)NC(=O)[C@H](CO)NC(=O)[C@@H](NC(=O)[C@H](Cc1ccccc1)NC(=O)[C@@H](NC(=O)CNC(=O)[C@H](CCC(N)=O)NC(=O)C1(NC(=O)[C@@H](N)Cc2c[nH]cn2)CCC1)[C@@H](C)O)[C@@H](C)O)C(C)C)C(=O)N[C@@H](CCCCNC(=O)CC[C@H](NC(=O)CC[C@H](NC(=O)COCCOCCNC(=O)COCCOCCNC(=O)CC[C@H](NC(=O)CC[C@H](NC(=O)CCCCCCCCCCCCCCCCC(=O)O)C(=O)O)C(=O)O)C(=O)O)C(=O)O)C(=O)N[C@H](C(N)=O)[C@@H](C)O [Chem. 17, N^ε28-[(4S)-4-carboxy-4-[[(4S)-4-carboxy-4-[[2-[2 [2-[[2-[2-[2-[[(4S)-4-carboxy-4-[[(4S)-4-carboxy-4-(17-carboxyheptadecanoylamino)butanoyl]amino]butanoyl]amino]ethoxy]ethoxy]acetyl]amino]ethoxy]ethoxy]acetyl]amino]butanoyl]amino]butanoyl]-[Acb2,Leu10,Arg12,Glu15,Arg20,Glu21,Ile27,Lys28]-Glucagon amide] (H-H[Ac4c]QGTFTSDLSRYLESRRAREFVQWLIK([γGlu-γGlu-AEEA-AEEA-γGlu-γGlu-C18 diacid])T-NH2) |
| 0.1 | CC[C@H](C)[C@H](NC(=O)[C@H](CC(C)C)NC(=O)[C@H](Cc1c[nH]c2ccccc12)NC(=O)[C@H](CCC(N)=O)NC(=O)[C@@H](NC(=O)[C@H](Cc1ccccc1)NC(=O)[C@H](CC(=O)O)NC(=O)[C@H](CCCNC(=N)N)NC(=O)[C@H](C)NC(=O)[C@H](CCCNC(=N)N)NC(=O)[C@H](CCCNC(=N)N)NC(=O)[C@H](C)NC(=O)[C@H](CC(=O)O)NC(=O)[C@H](CC(C)C)NC(=O)[C@H](Cc1ccc(O)cc1)NC(=O)[C@H](CCCCN)NC(=O)[C@H](CO)NC(=O)[C@H](CC(C)C)NC(=O)[C@H](CC(=O)O)NC(=O)[C@H](CO)NC(=O)[C@@H](NC(=O)[C@H](Cc1ccccc1)NC(=O)[C@@H](NC(=O)CNC(=O)[C@H](CCC(N)=O)NC(=O)C(C)(C)NC(=O)[C@@H](N)Cc1c[nH]cn1)[C@@H](C)O)[C@@H](C)O)C(C)C)C(=O)N[C@@H](CC(N)=O)C(=O)N[C@@H](CCCCNC(=O)CC[C@H](NC(=O)CC[C@H](NC(=O)COCCOCCNC(=O)COCCOCCNC(=O)CC[C@H](NC(=O)CCCCCCCCCCCCCCCCC(=O)O)C(=O)O)C(=O)O)C(=O)O)C(N)=O [Chem. 20, N^ε29-[(4S)-4-carboxy-4-[[(4S)-4-carboxy-4-[[2-[2-[2-[[2-[2-[2-[[(4S)-4-carboxy-4-(17-carboxyheptadecanoylamino)butanoyl]amino]ethoxy]ethoxy]acetyl]amino]ethoxy]ethoxy]acetyl]amino]butanoyl]amino]butanoyl]-[Aib2,Leu10,Ala16,Arg20,Ile27,Lys29]-Glucagon amide] (H-H[Aib]QGTFTSDLSKYLDARRARDFVQWLINK([γGlu-γGlu-AEEA-AEEA-γGlu-C18 diacid])-NH2; N-terminus assumed) |
